{"source": "paper PMC4900628", "about": "“Critical Evaluation of P2X7 Receptor Antagonists in Selected Seizure Models” (PLoS ONE, 2016)", "key": {"mouse P2X7R": {"target": "T1, mouse P2X7R (Mus musculus, UniProt Q9Z1M0)", "T1 construct": "expressed in transfected cells", "T1 sequence (Q9Z1M0 1-595)": "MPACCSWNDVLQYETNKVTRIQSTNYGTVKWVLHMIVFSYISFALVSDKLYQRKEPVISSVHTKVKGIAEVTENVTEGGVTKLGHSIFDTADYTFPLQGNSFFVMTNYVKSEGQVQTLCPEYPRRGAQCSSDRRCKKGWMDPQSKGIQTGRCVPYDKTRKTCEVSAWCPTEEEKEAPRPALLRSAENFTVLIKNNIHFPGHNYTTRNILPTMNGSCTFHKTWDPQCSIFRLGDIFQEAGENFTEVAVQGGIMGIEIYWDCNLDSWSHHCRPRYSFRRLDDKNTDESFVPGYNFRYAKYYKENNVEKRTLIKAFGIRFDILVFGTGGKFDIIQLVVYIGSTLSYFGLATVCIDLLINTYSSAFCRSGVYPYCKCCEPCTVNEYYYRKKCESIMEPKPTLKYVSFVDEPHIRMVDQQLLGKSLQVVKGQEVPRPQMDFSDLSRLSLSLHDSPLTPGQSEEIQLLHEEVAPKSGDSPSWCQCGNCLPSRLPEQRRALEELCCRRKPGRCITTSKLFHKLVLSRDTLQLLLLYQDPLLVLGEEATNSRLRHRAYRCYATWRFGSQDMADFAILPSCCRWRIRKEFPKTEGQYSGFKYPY", "assay": "fluorometric Ca2+ assay (ATP-induced [Ca2+]i response) in HEKmP2X7 cells", "type": "cell-based", "conditions": "fluo-4, 1 mM ATP, read-out: Potency IC50 ± SEM, Mouse P2X7R", "protocol": "(§1) Cells were grown in a humidified incubator at 37°C in an atmosphere supplemented with 5% CO2. […] HEK293mP2X7 were cultured in DMEM under similar conditions as described above, but containing 100 μg/ml zeocin (Invitrogen). […] Expression of the transgene was induced by supplementing the medium with 1 μg/ml tetracycline (Sigma-Aldrich, Taufkirchen, Germany) 24 h prior to the experiments. All fluorometric Ca^2+ assays in cell suspensions were performed in 384-microwell plates (Corning, No. 3655, Lowell, MA, USA) with a fluorescence-imaging microplate reader (POLARstar Omega, BMG Labtech, Offenburg, Germany) (for details, see [61, 68]). […] Microwell plates were repetitively scanned every 16 s in the fast scanning mode of the device. […] Data were normalized to the baseline values before ATP application (F/F0). […] ATP-solution was freshly prepared in Mg^2+-free HBS solution and adjusted to pH 7.4. Aliquots of stock solutions were stored at -20°C and freshly diluted with the appropriate HBS solution. […] Results are expressed as mean ± SEM. […] In the PTZ-T, the number of animals in the group with clonic seizures and the latency time were analysed using Fisher's exact probability test and the Mann-Whitney rank sum test, respectively. For multiple comparisons of the latency time a one-way ANOVA with the Holm-Sidak post hoc test was used. The influence of AFC on the plasma and brain concentrations of the antiepileptic drugs was statistical compared using the same procedure. In the PTZ-kindling model, the mean seizure stage within a group was calculated in relation to the number of PTZ-injections. Statistical comparison between vehicle- and compound-treated groups in this model was performed with two-way repeated measures ANOVA, followed by the Holm-Sidak post hoc test. […] In fully kindled rats, the calculated mean seizure stage within a group after vehicle- and compound-treatment were compared using a paired t-test. P < 0.05 was the accepted minimum level of significance."}, "rat P2X7R": {"target": "T2, rat P2X7R (Rattus norvegicus, UniProt Q64663)", "T2 construct": "expressed in transfected cells; host or cells: HEK293 Flp-In T-REx (HEKrP2X7), tetracycline-induced", "T2 sequence (Q64663 1-595)": "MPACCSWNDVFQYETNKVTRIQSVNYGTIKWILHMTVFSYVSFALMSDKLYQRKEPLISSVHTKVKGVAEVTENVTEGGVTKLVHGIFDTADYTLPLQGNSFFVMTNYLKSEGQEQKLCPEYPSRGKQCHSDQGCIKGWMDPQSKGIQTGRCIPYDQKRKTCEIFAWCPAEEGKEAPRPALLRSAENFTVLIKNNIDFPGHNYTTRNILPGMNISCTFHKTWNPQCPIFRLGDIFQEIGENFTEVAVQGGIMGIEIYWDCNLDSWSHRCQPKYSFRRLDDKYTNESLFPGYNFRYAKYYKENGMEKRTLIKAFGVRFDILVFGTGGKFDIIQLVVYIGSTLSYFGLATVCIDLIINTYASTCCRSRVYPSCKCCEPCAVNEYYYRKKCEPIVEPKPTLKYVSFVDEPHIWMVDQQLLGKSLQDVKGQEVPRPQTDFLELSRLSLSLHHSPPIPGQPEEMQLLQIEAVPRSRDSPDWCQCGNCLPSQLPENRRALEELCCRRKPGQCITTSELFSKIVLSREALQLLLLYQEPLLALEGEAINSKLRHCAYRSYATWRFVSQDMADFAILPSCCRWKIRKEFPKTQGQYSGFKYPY", "assay": "fluorometric Ca2+ assay (ATP-induced [Ca2+]i response) in HEKrP2X7 cells", "type": "cell-based", "conditions": "for IC50: HEKrP2X7 cells, fluo-4, 1 mM ATP, read-out: Potency IC50 ± SEM, Rat P2X7R", "protocol": "as §1"}, "P2X7R": {"target": "T3, P2X7R (Rattus norvegicus, UniProt Q64663)", "T3 construct": "from tissue; host or cells: rat (Wistar) brain, hippocampal slices", "T3 sequence (Q64663 1-595)": "T2 sequence (Q64663 1-595)", "assay": "P2X7R brain occupancy, ex vivo receptor binding autoradiography", "type": "in vivo", "conditions": "sc, rats, 15 mg/kg s.c., hippocampal slices, [3H] JNJ-54232334 autoradiography", "protocol": "Plasma and brain samples from experiments with JNJ-47965567 were quantified at the Neuroscience Therapeutic Area, Janssen Research & Development (San Diego, CA, USA) using an API 4000 MS/MS system (Applied Biosystems, Concord, ON, Canada) interfaced with an Agilent 1100 Series HPLC (Agilent Technologies). To measure the percentage of P2X7R brain occupancy of JNJ-47965567, ex vivo receptor binding autography was performed as recently described. Briefly, 20 μm-thick hippocampal slices were prepared and P2X7R radioligand binding was determined at room temperature with 10 nM [^3H] JNJ-54232334 (Janssen) in 50 mM Tris-HCl incubation buffer containing 0.1% bovine serum albumin. The non-specific binding was measured using adjacent sections incubated in the additional presence of 100 μM A-740003 (Tocris Bioscience, Bristol UK). Sections were incubated for 1 min, washed in ice-cold incubation buffer (4 times, 5 min each), followed by two dips in deionized water and rapidly dry under a stream of cold air before acquisition. Quantitative analysis was performed using the Tracer ß-Imager with M3 Vision software (Biospace Lab, Paris, France). Ex vivo receptor labelling was expressed as the percentage of receptor labelling in corresponding brain areas of vehicle-treated control animals."}}, "data": [{"smiles": "CCOc1ccc(Nc2ccc(/C(=C3C=C/C(=[N+](/CC)Cc4cccc(S(=O)(=O)[O-])c4)C=C/3C)c3ccc(N(CC)Cc4cccc(S(=O)(=O)O)c4)cc3C)cc2)cc1", "note": "[Brilliant Blue G]", "values": [{"measurement": "IC50", "setting": "mouse P2X7R", "result": "530 ± 150", "unit": "nM"}, {"measurement": "IC50", "setting": "rat P2X7R", "result": "50 ± 10", "unit": "nM"}, {"measurement": "inhibition at 0.02 µM", "setting": "rat P2X7R; read-out: inhibition of P2X7R / ATP-induced Ca2+ response corresponding to the achieved rat brain concentration", "result": "~30", "unit": "%"}]}, {"smiles": "O=C(NCC1(N2CCN(c3ccccc3)CC2)CCOCC1)c1cccnc1Sc1ccccc1", "note": "[JNJ-47965567, N-[[4-(4-phenyl-piperazin-1-yl)tetrahydro-2H-pyran-4-yl]-methyl]-2-(phenyl-thio) nicotinamide]", "values": [{"measurement": "receptor occupancy at 15 mg/kg", "setting": "P2X7R", "result": "98 ± 2", "unit": "%"}, {"measurement": "IC50", "setting": "mouse P2X7R", "result": "10 ± 1", "unit": "nM"}, {"measurement": "IC50", "setting": "rat P2X7R", "result": "3 ± 0.1", "unit": "nM"}]}, {"smiles": "Cc1c(S(=O)(=O)[O-])oc2c1C(=O)C(=O)c1c-2ccc2c1CCCC2(C)C.[Na+]", "note": "[Tanshinone TIIAS, tanshinone IIS sulfonic sodium]", "values": [{"measurement": "IC50", "setting": "mouse P2X7R", "result": "≥ 6000", "unit": "nM"}, {"measurement": "IC50", "setting": "rat P2X7R", "result": "≥ 30000", "unit": "nM"}]}]}
